PMC11388068, “Amide naphthotube as a novel supramolecular sequestration agent for tetracaine and decamethonium” (Theranostics, 2024)
Where “and” joins values, the source holds several entries; their conditions need not be identical. Equal entries are not always repeated. Where two headings read alike, the source gives them in different places.

Tests used:
mice = test: Lethal C10 poisoning mouse model (Dixon's up-and-down, probit); assay type: in vivo; settings: C10 i.v., probit analysis
Description: (§1) Lethal C10 poisoning mouse model: the lethal dose of i.v. administered C10 was calculated using Dixon's up-and-down method similar to TC. The initial dose of C10 was 0.9 mg/kg. Subsequent doses for each mouse were adjusted by ±0.1 mg/kg based on the outcome of the preceding animal.

[1] = as above; assay type: in vivo; settings: Balb/c, mouse, in vivo, iv; C10 i.v., mice, probit analysis
Description: as §1

C10-induced paralysis = test: Mobility recovery assessment in a mouse model (Rotarod); assay type: in vivo, Female Balb/c mice; settings: mice given C10 0.53 mg/kg, no 1b
Description: Mobility recovery assessment in a mouse model: the trained mice for 4 days were i.v. administered with either 4 mg/kg or 6 mg/kg of 1b, or saline, 30 seconds after administering 0.53 mg/kg C10. The mice were then placed on the rotor, and the time taken to move on the rotor for 30 seconds successfully was recorded.

Balb/c mice [2] = test: C10-induced paralysis dose in a mouse model (Rotarod); assay type: in vivo, Female Balb/c mice; settings: C10 i.v., probit analysis
Description: Determination of C10-induced paralysis dose in a mouse model: The movement behavior was conducted with the Rotarod rotor (ZB-200). Female Balb/c mice (8-9 weeks old) weighing 18-22 g were placed on the Rotarod rotor and trained three times for 30 minutes, three times a day for three consecutive days. On day 4, Dixon's up-and-down method was employed to explore the effective dose: The initial dose of C10 to the first mouse was 0.6 mg/kg, and the standard dose ratio of C10 given to the adjacent mouse was 0.8. […] Conversely, in the case of a negative response, the following mouse received an increased dose. Tests were conducted sequentially, with changes in mobility response transitioning between positive and negative until at least 7 crossover points were reached. Probit analysis was employed to determine the ED50 (50% effective dose) and ED95 (95% effective dose) of C10, along with their corresponding CI (confidence intervals). Sequence diagrams and dose-response curves were generated using GraphPad Prism 9 software.

[3] = Plasma pharmacokinetics of C10, saline- and 1b-treated groups; assay type: in vivo, Male Kunming mice; settings: for AUC(0-inf) / AUC(0-t) / Cmax / MRT last / MRT inf / half-life / Vd: plasma; for MRT last: read-out: MRT0-t; for MRT inf: read-out: MRT0-∞; for half-life: read-out: T1/2z (converted); for Vd: read-out: Vz
Description: Male Kunming mice (30 ± 2 g) were used in the pharmacokinetic study. Drugs were injected through the tail vein of mice. Blood, liver, and kidney tissues were collected at certain intervals after administration with 6 mice at each time point. Blood samples were placed in heparin sodium tubes and centrifuged at 6000 rpm for 20 minutes at 4^ oC to obtain plasma samples. Plasma, liver and kidney tissues were stored in a freezer at -80 °C and frozen until analysis was performed. The drug concentrations were determined by Liquid chromatography-mass spectrometry (Waters ACQUITY UPLC/Xevo TQ-S). The Masslynx 4.1 software was used to obtain the peak area of the tested compounds and internal standards in each plasma sample and calculate the standard curve formula. […] The detailed pharmacokinetics experiment procedure including materials and reagents, sample preparation, establishment and validation of analytical strategy, and LC-MS conditions are described in the Supporting Information.
1.3. A dministration and collection of plasma samples
Male Kunming mice (30±2g) were randomly divided into 5 groups, namely 1b group (dose 80mg/kg, concentration 20mg/ml), C10 group (dose 0.45mg/kg, concentration 0.125mg/ml, C10 injection for 30s followed by the same volume of normal saline), 1b combined with C10 group (C10 dose 0.45 mg/kg, C10 concentration 0.125mg/ml, C10 injection for 30s followed by 1b 6 mg/kg, 1b concentration 1.5 mg/ml). Drugs were injected through the tail vein of mice. In group 1b , eyeball blood and liver and […]
after administration, with 6 mice in each time point. In the other four groups, blood and liver and kidney tissues were collected from eyeballs at 3min, 5min, 10min, 15min, 30min, 45min and 1h after administration. Six mice were selected at each time point. Blood samples were placed in heparin sodium tubes and centrifuged at 6000rpm for 20 minutes at 4℃ to obtain plasma samples. They were stored in a refrigerator at - 80 ° C and frozen until analysis. Plasma, liver and kidney tissues were stored in a freezer at - 80 ℃ and then frozen until analysis was performed.
1.4. Preparation of Calibration Standards and Quality Control (QC) Samples 1b, C10, and IS were dissolved separately in methanol to get a stock solution concentration of 1.0 mg/mL. The stock solution of the drug to be tested was then diluted with methanol to prepare the working solution. Calibration standards and QC samples were prepared by diluting the working solution with methanol. The final concentrations of C10 were 25, 250 and 1000 ng/mL, 1b final concentration of 150, 1500 and 6000 ng/mL.The final concentration of IS is 10 ng/mL.
1.5.Mouse plasma sample preparation
The plasma to be tested was thawed at room temperature, and 100 μL of mouse plasma samples were collected in 1.5 mL EP tubes. 10 μL of IS solution (10 ng/mL) and 10 μL of methanol were mixed followed by the addition of 400 μL […] (1:1 v / v), and then the tubes were vortex mixed for 3.0 min.
After centrifugation at 13,000 rpm for 20 min at 4 °C, the supernatant was transferred to a nitrogen blower, and the solvent was dried by maintaining a steady flow of nitrogen. After drying the solvent, reconstituted with 100 μL 20% aqueous methanol

AC16 cells [4] = test: Intracellular sodium levels; assay type: cell-based, Human; settings: TC 400 µM, 10 minutes
Description: Determination of intracellular sodium levels: 3×10^5 AC16 cells were seeded in 6-well plates with 2 mL of medium. After 12 hours, the cell medium was replaced with 400 µM TC and varying concentrations of compound 1b (ammonium salt, 0, 400, 800, and 2000 µM) or 2000 µM 1b in HBSS for 10 minutes at 37 °C. Control cells were treated with 2 mL HBSS for 10 minutes at 37 °C. After washing with PBS, cells were lysed in 300 µL of 1% Triton X-100 in saline with a 1% proteinase inhibitor cocktail from Meilunbio. The lysates were centrifuged at 12,000 ×g for 15 minutes, and the supernatant was collected for sodium level determination (7600 Modular-Hitachi-Chemistry Analyzer) and total protein content BCA assays (Epizyme Biotech). The sodium-to-protein ratio was calculated, presenting results as relative intracellular sodium content compared to the control group.

AC16 cells [5] = test: Plasma membrane potential, DiBAC4(3) flow cytometry; assay type: cell-based, Human; settings: AC16 cells exposed to TC for 10 minutes
Description: Determination of the plasma membrane potential: AC16 cells were seeded into 12-well plates and cultured until reaching 80-90% confluence. Following removal of the culture medium, cells were exposed to HBSS (Hank's Balanced Salt Solution) containing […] TC for 10 minutes at 37 °C. Subsequently, cells were collected and incubated with 200 nM Bis-(1,3-Dibutylbarbituric Acid)-Trimethine Oxanol (DiBAC4(3), Solarbio) for 20 minutes at 37 °C. The fluorescence intensity of cells was then assessed using flow cytometry. To determine the impact of 1b (ammonium salt) on plasma membrane potential, 25×10^4 AC16 cells were co-incubated with 400 µM TC and varying concentrations of 1b (0, 400, 800, and 2000 µM) or exclusively with 1b (2000 µM) in HBSS for 10 minutes at 37 °C. Plasma membrane potential was subsequently evaluated using the aforementioned methodology.

Balb/c mice [6] = test: Lethal TC poisoning mouse model (Dixon's up-and-down, probit); assay type: in vivo, female Balb/c mice; settings: TC i.v., probit analysis
Description: (§2) Lethal TC poisoning mouse model: the lethal dose of i.v. administered TC was calculated in mice (8-10 week old female Balb/c mice, weighing 20-25 g) using Dixon's up-and-down method. The initial dose of TC given to the first mouse was 9.0 mg/kg, and the standard dose ratio of TC given to the adjacent mouse was 0.9. If the animal survives, the subsequent animal receives a higher dose. If the animal dies, the following animal receives a lower dose. This process was repeated until at least seven crossover points were achieved. Probit analysis was employed to determine the LD50 (50% lethal dose) and LD95 (95% lethal dose) of TC, along with their corresponding CI (confidence intervals). Sequence diagrams and dose-response curves were generated using GraphPad Prism 9 software.

[7] = as above; assay type: in vivo, female Balb/c mice; settings: female, Balb/c, mouse, in vivo, iv, TC i.v., mice, probit analysis
Description: as §2

Human myocytes AC16 cell = test: CCK-8 cytotoxicity assay in AC16 cells; assay type: cell-based; settings: 24 h, 24 h incubation, mixtures in a 1:1 ratio
Description: Cells experiments: AC16 cells were cultured in DMEM/F12 with 10% FBS, 1% penicillin, and 1% streptomycin at 37 °C with 5% CO2, and passaged every 2 days. They were seeded into 96-well plates at a density of 5-8×10^3 cells per well and cultured overnight. Then, different concentrations of TC, 1a, 1b, TC@1a and TC@1b mixture solution at various concentrations (25, 50, […], […], 200, 400, 800, and 1600 μM) were added to replace the culture medium for 24 h at 37 °C. After incubation, Cell Counting Kit-8 solution (10 μL per well) was added, and cells were incubated for 4 h at 37 °C. The optical density values at 450 nm were measured using a microplate reader to assess cell viability as a percentage of control cells. Finally, IC50 values were calculated using GraphPad Prism 8.0.2 software.
The assay and cell viability were calculated as in the cell experiment above.

[8] = male, Kunming, mouse, iv, 0.45 mg/kg, C10 in plasma, Saline-treated Group
[9] = male, Kunming, mouse, iv, 0.45 mg/kg, C10 in plasma, 1b-treated Group

C[N+](C)(C)CCCCCCCCCC[N+](C)(C)C [C10, Decamethonium]
LD95 (mice): 0.86 mg/kg
LD50 [1]: 0.69 mg/kg
average recovery time (C10-induced paralysis): approximately 402.8 seconds
ED95 for inducing muscle paralysis (Balb/c mice [2]): 0.53 mg/kg
ED50 (Balb/c mice [2]; Mus musculus, iv, read-out: ED50 for inducing muscle paralysis): 0.37 mg/kg
CL ([3]; C10 in plasma, 1b-treated Group): 1.12 ± 0.22 mL/h/g
CL ([3]; C10 in plasma, Saline-treated Group): 1.54 ± 0.16 mL/h/g
Tmax [3, 8]: 3 min
AUC(0-inf) ([3]; male, Kunming, mouse, iv, 0.45 mg/kg, C10, 1b-treated Group, read-out: area under the plasma concentration-time curve (AUC0-∞)): 414 ± 80.9 ng·h/mL
AUC(0-inf) ([3]; male, Kunming, mouse, iv, 0.45 mg/kg, C10, saline-treated Group, read-out: area under the plasma concentration-time curve (AUC0-∞)): 294 ± 28 ng·h/mL
AUC(0-t) [3, 9]: 406 ± 77.2 ng·h/mL
Cmax [3, 9]: 1630 ± 345 ng/mL
AUC(0-inf) ([3]; male, Kunming, mouse, iv, 0.45 mg/kg, C10 in plasma, 1b-treated Group, read-out: AUC0-∞): 414 ± 80.9 ng·h/mL
MRT last [3, 9]: 9 ± 1.2 min
MRT inf [3, 9]: 10.2 ± 1.8 min
half-life [3, 9]: 11.4 ± 1.2 min
Vd [3, 9]: 0.3 ± 0.06 L/kg
AUC(0-t) [3, 8]: 284 ± 26.4 ng·h/mL
Cmax [3, 8]: 1310 ± 179 ng/mL
AUC(0-inf) ([3]; male, Kunming, mouse, iv, 0.45 mg/kg, C10 in plasma, Saline-treated Group, read-out: AUC0-∞): 294 ± 28 ng·h/mL
MRT last [3, 8]: 6.6 ± 1.2 min
MRT inf [3, 8]: 9.6 ± 2.4 min
half-life [3, 8]: 21.6 ± 9.6 min
Vd [3, 8]: 0.8 ± 0.33 L/kg

CCCCNc1ccc(C(=O)OCCN(C)C)cc1 [TC, Tetracaine]
intracellular sodium loss (AC16 cells [4]): approximately 20%
mean fluorescence intensity (plasma membrane potential) (AC16 cells [5]): significant rise in mean fluorescence intensity
LD50 (Balb/c mice [6]): 6.9 mg/kg
LD95 (Balb/c mice [6]): 8.749 mg/kg and 8.7 mg/kg
LD50 [7]: 6.92 mg/kg
IC50 (Human myocytes AC16 cell): 384 µM
